Laboratory results published in US20220274947A1, “NOVEL HETEROARYL-TRIAZOLE COMPOUNDS AS PESTICIDES” (Bayer Aktiengesellschaft, priority 2019, published 2022).

Key:
Type in all cases: in vivo
[1] = test system: Musca domestica strain WHO—N; assay: Musca domestica test (MUSCDO surface treatment & contact assay); conditions: exposure 30 minutes, 24 hours after contact, read-out: efficacy (mortality); for mortality at 20 mg/m2: surface concentration 20 mg/m^2, glazed tile; for mortality at 4 mg/m2: surface concentration 4 mg/m^2, glazed tile
Method in brief: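 Compound dissolved in acetone (2 mg/ml) with 2000 ppm rapeseed oil methyl ester and pipetted onto glazed tile; after acetone evaporation, adult flies exposed to dried surface for 30 minutes. Mortality (%) scored 24 hours after contact.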

[2] = test system: Myzus persicae; assay: Myzus persicae oral test; conditions: 120 h, read-out: activity (mortality)
Method in brief: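 Percent mortality was recorded at day 5, where 0% means no aphids killed. Compound prepared from an acetone concentrate diluted in water and combined with IPL41 medium containing sugar was offered to mixed-stage green peach aphids, which sucked it through a parafilm seal.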

[3] = test system: Aedes aegypti strain MONHEIM; assay: Aedes aegypti test (AEDSAE surface treatment & contact assay); conditions: exposure 30 minutes, 24 hours after contact, read-out: efficacy (mortality); for mortality at 4 mg/m2: surface concentration 4 mg/m^2, glazed tile; for mortality at 20 mg/m2: surface concentration 20 mg/m^2, glazed tile
Method in brief: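 Compound dissolved in acetone (2 mg/ml) with 2000 ppm rapeseed oil methyl ester, pipetted onto glazed tile and dried. Adult mosquitoes exposed on the surface for 30 min; percent mortality scored 24 h after contact.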

[4] = test system: Ctenocephalides felis; assay: Ctenocephalides felis oral test (CTECFE Oral); conditions: 48 h, read-out: activity (mortality)
Method in brief: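 About 20 unfed adult cat fleas fed through parafilm on cattle blood containing compound (DMSO concentrate diluted in blood to the desired concentration). Blood held at 37 °C, fleas at room temperature. Mortality (%) scored after 2 days.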

[5] = test system: Culex quinquefasciatus strain P00; assay: Culex quinquefasciatus test (CULXFA surface treatment & contact assay); conditions: exposure 30 minutes, 24 hours after contact, read-out: efficacy (mortality); for mortality at 4 mg/m2: surface concentration 4 mg/m^2, glazed tile; for mortality at 20 mg/m2: surface concentration 20 mg/m^2, glazed tile
Protocol: Culex quinquefasciatus Test (CULXFA Surface Treatment & Contact Assay) Solvent: Aceton+2000 ppm rapeseed oil methyl ester (RME)
In order to produce a sufficient, active ingredient containing solution it is necessary to solve the test compound in the solvent-mix (acetone at 2 mg/ml/RME 2 000 ppm). This solution is pipetted onto a glazed tile and after evaporation of the acetone, adult mosquitoes of the species Culex quinquefasciatus strain P00 are placed onto the dried surface. The exposure time is 30 minutes. Mortality in percent (%) is determined 24 hours after contact of the insects to the treated surface. 100% mortality means that all tested insects are dead, whereas 0% means that no insect died.

[6] = test system: Anopheles funestus strain FUMOZ-R; assay: Anopheles funestus test (ANPHFU surface treatment & contact assay); conditions: exposure 30 minutes, 24 hours after contact, read-out: efficacy (mortality); for mortality at 4 mg/m2: surface concentration 4 mg/m^2, glazed tile; for mortality at 20 mg/m2: surface concentration 20 mg/m^2, glazed tile
Method in brief: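 Adult FUMOZ-R mosquitoes were exposed 30 min to glazed tiles treated with compound in acetone plus 2000 ppm rapeseed oil methyl ester, after solvent evaporation. Percent mortality was scored 24 h after contact.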

[7] = test system: Myzus persicae; assay: Myzus persicae spray test; conditions: in Brassica rapa, foliar, 120 h; for mortality at 100 g/ha: read-out: activity (mortality), application rate 100 g/ha, spray, Chinese cabbage leaf disks, after 5 days
Method in brief: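 Compound in acetone/DMF solvent diluted in water with 1000 ppm alkylarylpolyglycol ether emulsifier, sprayed onto Chinese cabbage leaf disks infested with all instars of Myzus persicae. Mortality (%) scored after 5 days.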

Structure (SMILES)	mortality at 20 mg/m2 [1] [%]	mortality at 4 ppm [2] [%]	mortality at 4 mg/m2 [3] [%]	mortality at 20 mg/m2 [3] [%]	mortality at 100 ppm [4] [%]	mortality at 4 mg/m2 [1] [%]	mortality at 4 mg/m2 [5] [%]	mortality at 20 mg/m2 [5] [%]	mortality at 4 mg/m2 [6] [%]	mortality at 0.8 ppm [2] [%]	mortality at 100 g/ha [7] [%]	mortality at 500 g/ha ([7]; read-out: activity (mortality), application rate 500 g/ha, spray, Chinese cabbage leaf disks, after 5 days) [%]	mortality at 20 mg/m2 [6] [%]
CC(C)c1nc([C@H](C)NC(=O)c2cncc(C(F)(F)F)c2)n(-c2ccc(C#N)cn2)n1 [I-30]	80 to 100	90	80 to 100	80 to 100	100	–	–	–	–	–	–	–	–
C[C@H](NC(=O)c1cc(Cl)cc(SC(F)F)c1)c1ncnn1-c1ccc(C#N)cn1 [II-11]	80 to 100	100	80 to 100	80 to 100	100	80 to 100	80 to 100	80 to 100	–	–	–	–	–
C[C@H](NC(=O)c1cc(Br)cc(Br)c1)c1ncnn1-c1ccc(C#N)cn1 [II-13]	80 to 100	90	80 to 100	80 to 100	100	80 to 100	–	80 to 100	–	–	–	–	–
C[C@H](NC(=O)c1cc(Br)cc(OC(F)(F)F)c1)c1ncnn1-c1ccc(C#N)cn1 [II-14]	80 to 100	100	80 to 100	80 to 100	100	80 to 100	–	–	80 to 100	–	–	–	–
Cc1nc([C@H](C)NC(=O)c2cc(Cl)cc(C(F)(F)F)c2)n(-c2cc(C#N)ccn2)n1 [II-18]	80 to 100	100	–	–	90	80 to 100	–	80 to 100	–	–	–	–	–
Cc1nc([C@H](C)NC(=O)c2cc(C(F)(F)F)cc(C(F)(F)F)c2)n(-c2cc(C#N)ccn2)n1 [II-19]	80 to 100	100	80 to 100	80 to 100	100	–	–	80 to 100	–	100	–	–	–
Cc1nc([C@H](C)NC(=O)c2cc(Br)cc(C(F)(F)F)c2)n(-c2ccc(C#N)cn2)n1 [II-32]	80 to 100	100	80 to 100	80 to 100	–	80 to 100	–	–	–	100	100	90	–
C[C@H](NC(=O)c1cc(C(F)(F)F)cc(C(F)(F)F)c1)c1ncnn1-c1ncc(Br)s1 [II-41]	80 to 100	100	80 to 100	80 to 100	–	80 to 100	80 to 100	80 to 100	–	–	–	–	–
Cc1nc([C@H](C)NC(=O)c2cc(Cl)cc(C#N)c2)n(-c2ccc(C#N)cn2)n1 [II-61]	80 to 100	100	80 to 100	80 to 100	100	80 to 100	–	–	–	–	90	–	–
Cc1nc([C@H](C)NC(=O)c2cc(Cl)cc(C(F)F)c2)n(-c2ccc(C#N)cn2)n1 [II-65]	80 to 100	100	80 to 100	80 to 100	100	80 to 100	–	–	–	–	90	–	–
C[C@H](NC(=O)c1cc(OC(F)F)cc(OC(F)F)c1)c1ncnn1-c1ccc(C#N)cn1 [II-77]	80 to 100	100	80 to 100	80 to 100	100	80 to 100	–	–	80 to 100	90	90	–	80 to 100
C[C@H](NC(=O)c1cc(Cl)cc(C(F)(F)F)c1)c1ncnn1-c1ccc(N(C)C(=O)C2CC2)cn1 [II-79]	–	–	80 to 100	80 to 100	100	–	–	–	80 to 100	100	100	–	80 to 100
C[C@H](NC(=O)c1cc(C(F)(F)F)cc(C(F)(F)F)c1)c1ncnn1-c1ccc(C(N)=O)cn1 [II-81]	80 to 100	100	80 to 100	80 to 100	100	–	–	–	80 to 100	100	90	–	80 to 100
C[C@H](NC(=O)c1cc(Br)cc(C(F)F)c1)c1ncnn1-c1ccc(C#N)cn1 [II-83]	80 to 100	100	80 to 100	80 to 100	100	80 to 100	–	–	80 to 100	–	90	–	80 to 100
Cc1nc([C@H](C)NC(=O)c2cc(C(F)(F)F)cc(C(F)(F)F)c2)n(-c2ccc(C(=O)N(C)CC#N)cn2)n1 [II-99]	80 to 100	100	–	80 to 100	–	80 to 100	–	–	–	100	90	–	–
C[C@H](NC(=O)c1cc(C(F)F)cc(C(F)F)c1)c1ncnn1-c1ccc(C#N)cn1 [II-101]	80 to 100	100	80 to 100	80 to 100	–	80 to 100	–	–	80 to 100	100	90	–	80 to 100
C[C@H](NC(=O)c1cc(OC(F)(F)F)cc(C(F)F)c1)c1ncnn1-c1ccc(C#N)cn1 [II-111]	80 to 100	100	80 to 100	–	–	–	–	–	–	90	–	–	–
C[C@H](NC(=O)c1cc(OC(F)F)cc(C(F)F)c1)c1ncnn1-c1ccc(C#N)cn1 [II-116]	80 to 100	100	80 to 100	80 to 100	–	80 to 100	–	–	–	100	90	–	80 to 100
Cc1nc([C@H](C)NC(=O)c2cc(OC(F)(F)F)cc(C(F)F)c2)n(-c2ccc(C#N)cn2)n1 [II-117]	80 to 100	100	80 to 100	80 to 100	–	80 to 100	–	–	–	100	100	–	–
